Test results taken from paper PMC6105163, “Abaloparatide Exerts Bone Anabolic Effects with Less Stimulation of Bone Resorption-Related Factors: A Comparison with Teriparatide” (Calcified Tissue International, 2018).
Where two headings read alike, the source gives them in different places.

Experiments:
OVX rats [1] = assay: Bone resorption marker urine DPD/Cr in OVX rats; format: in vivo, Sprague–Dawley rats (female); settings: once daily s.c.; for urinary DPD/Cr at 5.0 nmol/kg: day 28; for urinary DPD/Cr, significance: day 28, n = 8 or 9
Source text: (§1) Ten-week-old female Sprague–Dawley rats were purchased from Charles River Laboratories Japan, Inc. (Kanagawa, Japan) and ovariectomized at 12 weeks old. Thirty-five days after surgery, rats received once daily subcutaneous injection of ABL, TPTD, or vehicle (saline containing 0.1% heat-inactivated rat serum) for 28 days. Day 0 indicates the day when administration was started. On day 26, rats were anesthetized with intraperitoneally administered pentobarbital sodium and the lumbar spine (L4 and L5) BMD was measured with a PIXImus2 (GE Healthcare, Chicago, IL). Blood (collected from the tail vein) and urine samples were obtained on day 28. Prior to collection, rats were fasted for 15–17 h. Rats were euthanized after the blood and urine collection, and the lumbar spine was removed for the measurement of bone strength. All experimental procedures were approved by the Animal Care and Use Committee of Teijin Institute for Bio-Medical Research.
(§2) Serum P1NP concentration was measured with a Rat/Mouse PINP EIA kit (Immunodiagnostic Systems, Boldon, UK). Urine DPD concentration was measured with an Osteolinks DPD kit (Quidel, San Diego, CA, USA). Urine creatinine (Cr) concentration was measured with a 7180 Autoanalyzer (Hitachi High-Technologies Corporation, Tokyo, Japan).

[2] = cited from earlier work
[3] = tested on: human osteoblastic cell line SaOS-2; assay: cAMP accumulation assay in SaOS-2; format: cell-based; settings: for cAMP accumulation, in words: SaOS-2, 10 min (Fig. 1a), n = 3 replicate wells; for EC50 / Emax, cAMP accumulation: SaOS-2, 10 min, 2 mmol/L 3-isobutyl-1-methylxanthine, mean ± s.e.m., three independent experiments, each triplicate; for EC50: cAMP-Screen System, P = 0.13 ABL vs TPTD; for Emax, cAMP accumulation: P = 0.96 ABL vs TPTD
Description: (§3) The human osteoblastic cell line SaOS-2 and the rat osteoblastic cell line UMR-106 were purchased from the European Collection of Cell Cultures (Wiltshire, UK). SaOS-2 and UMR-106 were maintained in growth medium (GM): McCoy’s 5A (for SaOS-2) or Dulbecco’s Modified Eagle’s Medium (for UMR-106) supplemented with 10% FBS and 1% penicillin/streptomycin at 37 °C with 5% CO2. To initiate cell differentiation, cells were grown in differentiation medium (DM): GM containing 50 µg/mL ascorbic acid, 10 mmol/L β-glycerophosphate, and 10 nmol/L dexamethasone. The culture medium was exchanged every 6 days or less.
(§4) Cells were cultured in 96-well plates at a density of 4 × 10^4 cells/well in GM overnight. The medium was replaced with serum-free GM (containing 0.1% BSA instead of 10% FBS) for culture under starvation conditions. Twenty-four hours after the start of starvation, ABL, TPTD, or vehicle (water containing 0.1% BSA) were added to the cells with 2 mmol/L of 3-isobutyl-1-methylxanthine for 10 min. Cells were lysed and accumulated cAMP was measured using the cAMP-Screen System (Applied Biosystems, Waltham, MA, USA) according to the manufacturer’s instructions.
(§5) All data are expressed as means ± s.e.m. For calculation of EC50 and Emax, 4-parameter logistic curve fitting was performed. Student’s t test was used for two-group comparisons. Dunnett’s or Tukey’s test was used for multiple comparisons. Significance was inferred from P values of < 0.05. All data were analyzed using GraphPad Prism version 6.03 (GraphPad Software, La Jolla, CA, USA).

SaOS-2 = assay: Bone resorption-related factor gene expression (qRT-PCR); format: cell-based, human; settings: 100 nmol/L; for M-CSF mRNA expression / OPG mRNA expression / RANKL mRNA expression / RANKL/OPG mRNA expression: continuous treatment (Fig. 2b); for expression of bone resorption-related factors such as RANKL/OPG and M-CSF: human osteoblastic cells
Description: SaOS-2 was cultured in 48-well plates at a density of 5 × 10^4 cells/well in DM for 10 days. The medium was replaced with serum-free DM for culture under starvation conditions. Twenty-four hours after the start of starvation, cells were treated with ABL and TPTD at a concentration of 100 nmol/L. Six hours after treatment, cells were washed with PBS twice, and cultured with peptide-free or peptide-containing medium for the rest of the experimental period.
Cells were lysed and total RNA was extracted using an RNeasy Mini Kit (Qiagen, Valencia, CA, USA). RNA was reverse-transcribed into cDNA using the SuperScript III First-Strand Synthesis System for RT-PCR (Invitrogen, Carlsbad, CA, USA). Quantitative RT-PCR was performed on a 7500 Real-Time PCR System (Applied Biosystems) using Power SYBR Green PCR Master Mix (Thermo Fisher Scientific, Waltham, MA, USA). The primers used in this study were as follows: 5′-CGATGGTGGATGGCTCATG-3′ (forward) and 5′-ACCAGATGGGATGTCGGTG-3′ (reverse) for RANKL, 5′-[…]-3′ (forward) and 5′-[…]-3′ (reverse) for M-CSF, 5′-[…]-3′ (forward) and 5′-[…]-3′ (reverse) for OPG, 5′-[…]-3′ (forward) and 5′-[…]-3′ (reverse) for IGF1, 5′-[…]-3′ (forward) and 5′-[…]-3′ (reverse) for osteocalcin, 5′-[…]-3′ (forward) and 5′-[…]-3′ (reverse) for DMP1, 5′-[…]-3′ (forward) and 5′-[…]-3′ (reverse) for SOST, 5′-[…]-3′ (forward) and 5′-[…]-3′ (reverse) for DKK1, 5′-GTGAAGGTCGGAGTCAACG-3′ (forward) and 5′-TGAGGTCAATGAAGGGGTC-3′ (reverse) for GAPDH.

osteocyte-like SaOS-2 = assay: Sclerostin and DKK1 protein secretion (ELISA); format: cell-based, human; settings: 100 nmol/L, transient (Fig. 4d); efficacies of ABL and TPTD not significantly different; n = 3
Description: SaOS-2 was cultured in 48-well plates at a density of 5 × 10^4 cells/well in DM for 30 days. Cells were treated with ABL and TPTD at a concentration of 100 nmol/L. Six hours after treatment, cells were washed with PBS twice, and cultured with peptide-free or peptide-containing medium for the rest of the experimental period.
Human Quantikine M-CSF, Sclerostin, and DKK1 ELISA kits (R&D Systems, Minneapolis, MN, USA) were used to quantify M-CSF, sclerostin, and DKK1, respectively, in the cell supernatants according to the manufacturer’s instructions.

OVX rats [4] = assay: Lumbar spine (L4-L5) BMD in OVX rats; format: in vivo, Sprague–Dawley rats (female); settings: once daily s.c. for 28 days, BMD on day 26 (PIXImus2), vs OVX, n = 8 or 9
Source text: as §1

OVX rats [5] = assay: Bone formation marker serum P1NP in OVX rats; format: in vivo, Sprague–Dawley rats (female); settings: once daily s.c., day 28, vs OVX, n = 8 or 9
Source text: as §1, §2

[6] = tested on: rat osteoblastic cell line UMR-106; assay: cAMP accumulation assay in UMR-106; format: cell-based; settings: for cAMP accumulation, in words: UMR-106, 10 min (Fig. 1b), n = 3 replicate wells; for EC50 / Emax, cAMP accumulation: UMR-106, 10 min, 2 mmol/L 3-isobutyl-1-methylxanthine, mean ± s.e.m., three independent experiments, each triplicate; for EC50: P = 0.0067 ABL vs TPTD; for Emax, cAMP accumulation: P = 0.84 ABL vs TPTD
Description: as §3, §4, §5

Substance | urinary DPD/Cr at 5.0 nmol/kg (OVX rats [1]) | urinary DPD/Cr, significance (OVX rats [1]) | cAMP accumulation, in words [3] | EC50 [3] [nM] | Emax, cAMP accumulation [3] [nmol/L] | M-CSF mRNA expression (SaOS-2; n = 3) | OPG mRNA expression (SaOS-2; n = 3) | RANKL mRNA expression (SaOS-2; n = 3) | RANKL/OPG mRNA expression (SaOS-2; n = 3) | expression of bone resorption-related factors such as RANKL/OPG and M-CSF (SaOS-2) | DKK1 protein secretion (osteocyte-like SaOS-2) | sclerostin protein secretion (osteocyte-like SaOS-2) | lumbar spine BMD (OVX rats [4]) | serum P1NP (OVX rats [5]) | cAMP accumulation, in words [6] | EC50 [6] [nM] | Emax, cAMP accumulation [6] [nmol/L] | also measured
[Glu^22,25, Leu^23,28,31, Aib^29, Lys^26,30] human PTHrP(1–34)–NH2 [Abaloparatide] | a slight increase | no significant differences | dose-dependently increased cAMP | 5.1 ± 0.4 | 21.9 ± 1.4 | similarly promoted | inhibited | similarly promoted | similarly promoted | increased | inhibited | inhibited | significantly increased | significantly increased | dose-dependently increased cAMP | 0.84 ± 0.03 | 278.4 ± 20.8 | half-life in humans ([2]; human, in vivo, sc): approximately an hour or less; EC50 and Emax of ABL compared with TPTD ([3]; SaOS-2, Table 1): no significant differences; M-CSF expression, ABL vs TPTD (SaOS-2; transient 6-h treatment): less than TPTD; RANKL/OPG expression, ABL vs TPTD (SaOS-2; transient 6-h treatment): less than TPTD; bone resorption-related factors mRNA, ABL vs TPTD (SaOS-2; transient treatment (first 6 h, then washed out) (Fig. 2d), n = 3): significantly attenuated as compared with TPTD
human PTH(1–34) [Teriparatide] | a slight increase | no significant differences | dose-dependently increased cAMP | 3.9 ± 0.5 | 22.0 ± 1.5 | similarly promoted | inhibited | similarly promoted | similarly promoted | increased | inhibited | inhibited | significantly increased | significantly increased | dose-dependently increased cAMP | 1.18 ± 0.06 | 271.4 ± 25.0 | half-life in humans ([2]; subcutaneous injection, ref [27], [28]): approximately an hour or less
